We go through 35 compounds from US11673892B2, “Bicyclic compounds for use as RIP1 kinase inhibitors” (Genentech, Inc., priority 2017, dated 2023).

Each structure is given as a SMILES string.

This experiment addresses T1, human RIP1 kinase domain (2-375) (Homo sapiens, UniProt Q13546).
T1 construct: Purified human RIP1 kinase domain (2-375) (50 nM); made in house; host or cells: baculovirus-infected insect cells
T1 sequence (Q13546 2-375): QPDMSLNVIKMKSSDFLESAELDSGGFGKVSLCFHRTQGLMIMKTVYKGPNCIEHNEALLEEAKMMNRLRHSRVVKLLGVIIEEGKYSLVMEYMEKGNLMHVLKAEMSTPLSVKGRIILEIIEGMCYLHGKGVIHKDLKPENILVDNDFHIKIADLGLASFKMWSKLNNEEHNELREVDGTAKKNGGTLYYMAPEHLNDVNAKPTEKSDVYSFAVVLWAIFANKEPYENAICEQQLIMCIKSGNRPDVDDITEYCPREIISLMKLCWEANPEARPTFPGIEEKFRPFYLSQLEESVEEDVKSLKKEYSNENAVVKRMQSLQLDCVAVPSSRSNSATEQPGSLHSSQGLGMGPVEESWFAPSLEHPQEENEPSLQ
Briefly: RIP1 kinase inhibition biochemical assay (Transcreener ADP, fluorescence polarization). The conditions noted are these: Ki app (Morrison tight-binding fit); 50 nM enzyme, 50 uM ATP, 2 hours incubation. As to the method:
RIP1 Kinase Inhibition Assays (Biochemical Assay)
The compounds of the present invention were tested for their capacity to inhibit RIP1K activity as described below.
The ability of the receptor interacting protein kinase (RIPK1) to catalyze the hydrolysis of adenosine-5′-triphosphate (ATP) is monitored using the Transcreener ADP (adenosine-5′-diphosphate) assay (BellBrook Labs). Purified human RIP1 kinase domain (2-375) (50 nM) derived from a baculovirus-infected insect cell expression system is incubated with test compounds for 2 hours in 50 mM Hepes buffer (pH 7.5) containing 30 mM MgCl2, 1 mM dithiothreitol, 50 uM ATP, 0.002% Brij-35, and 0.5% dimethyl sulfoxide (DMSO). Reactions are quenched by the addition of 1× Bell Brooks Stop buffer B (20 mM Hepes (ph7.5), 40 mM ethylenediaminetetraacetic acid and 0.02% Brij-35) containing an additional 12 mM EDTA and 55 ug/mL ADP2 antibody and 4 nM ADP-AlexaFluor® 633 tracer. The tracer bound to the antibody is displaced by the ADP generated during the RIP1K reaction, which causes a decrease in fluorescence polarization that is measured by laser excitation at 633 nm with a FP microplate reader M1000. Fractional activity was plotted against test article concentration. Using Genedata Screener software (Genedata; Basel, Switzerland), the data were fit to the tight-binding apparent inhibition constant (Ki^app) Morrison equation [Williams, J. W. and Morrison, J. F. (1979) The kinetics of reversible tight-binding inhibition. Methods Enzymol 63: 437-67]. The following equation was used to calculate fractional activity and Ki^app:
[formula] where [E]T and [I]T are the total concentrations of active enzyme and test article, respectively.
Exemplary compounds of the present invention are provided in Table 1 along with their physiochemical characterization and in vitro RIP1 kinase inhibitory activity data. “Method” in the first column of each table refers to the synthetic method(s) used to prepare each compound as shown in the Examples above. In certain examples, chiral column retention times (min) are provided for certain stereoisomers. Unless otherwise specified, the stereochemistry shown in each structure represents relative configuration of a single stereoisomer, and absolute configuration (i.e., “R” and/or “S”) is arbitrarily assigned. In some embodiments, where the Method is described to include the separation of stereoisomers, a single stereoisomer of a compound of Table 1 is provided.
Consider `COC[C@@H]1C[C@H]1c1nc2n(n1)[C@H](c1ccccc1)C[C@@H]2F` (racemic) [Example 24, (S,7S)-7-fluoro-5-phenyl-2-[rac-(1R,2R)-2-(methoxymethyl)cyclopropyl]-6,7-dihydro-5H-pyrrolo[1,2-b][1,2,4]triazole], for which the Ki worked out at 910 nM.
Compound `CCC(C)(F)c1nc2n(n1)C(c1ccccc1)CC2F` [Example 6, Cis-(5S,7S)-2-(1-fluoro-1-methyl-propyl)-7-fluoro-5-phenyl-6,7-dihydro-5H-pyrrolo[1,2-b][1,2,4]triazole] registered a Ki of 69 nM.
`Fc1cn(-c2nc3n(n2)[C@H](c2ccccc2)C[C@@H]3F)cn1` (single isomer, unassigned) [Example 76] displayed a Ki of 64 nM.
The result for `F[C@H]1C[C@@H](c2ccccc2)n2nc(C(F)(F)C3CC3)nc21` (single isomer, unassigned) [Example 13] reads 3 nM; that for `[2H][C@](F)(c1nc2n(n1)[C@H](c1ccccc1)C[C@@H]2F)C1CC1` (single isomer, unassigned) [Example 110], 3.1 nM.
As to `CC(C)(C)C(F)(F)c1nc2n(n1)C(c1ccccc1)CC2F` (racemic) [Example 9, Cis-2-(1,1-difluoro-2,2-dimethyl-propyl)-7-fluoro-5-phenyl-6,7-dihydro-5H-pyrrolo[1,2-b][1,2,4]triazole], the Ki was determined as 68 nM.
Take `CC(=O)c1cnn(-c2nc3n(n2)[C@H](c2ccccc2)C[C@@H]3F)c1` (racemic) [Example 78, 1-[1-[rac-(5S,7S)-7-fluoro-5-phenyl-6,7-dihydro-5H-pyrrolo[1,2-b][1,2,4]triazol-2-yl]pyrazol-4-yl]ethanone]: the Ki is 130 nM.
For the compound `F[C@H]1C[C@@H](c2ccccc2)n2nc(C(F)(F)C34CC(C3)C4)nc21` [Example 42, (5S,7S)-2-[1-bicyclo[1.1.1]pentanyl(difluoro)methyl]-7-fluoro-5-phenyl-6,7-dihydro-5H-pyrrolo[1,2-b][1,2,4]triazole], the Ki is 6 nM.
With `CCC(O)c1nc2n(n1)[C@H](c1ccccc1)C[C@@H]2F` (some centres unmarked) [Example 1], the Ki is 406 nM.
The compound `Cn1ccnc1-c1nc2n(n1)[C@H](c1ccccc1)C[C@@H]2F` (single isomer, unassigned) [Example 61] displayed a Ki of 820 nM.
The result for `O[C@H](c1cc2n(n1)[C@@H](c1ccccc1)C[C@H]2F)C1CC1` (single isomer, unassigned) [Example 115] reads 81 nM; that for `C=Cc1nc2n(n1)[C@H](c1ccccc1)C[C@@H]2F` (single isomer, unassigned) [Example 50], 220 nM.
The result for `F[C@H]1C[C@@H](c2ccccc2)n2nc(-n3cccn3)nc21` (single isomer, unassigned) [Example 31] reads 160 nM; that for `O[C@@H](c1cc2n(n1)[C@@H](c1ccccc1)C[C@H]2F)C1CC1` (single isomer, unassigned) [Example 114], 100 nM.
The result for `F[C@@H]1C[C@H](c2ccccc2)n2nc(CCC(F)(F)F)nc21` (single isomer, unassigned) [Example 15] reads 1100 nM; that for `N#CCOCc1nc2n(n1)[C@H](c1ccccc1)C[C@@H]2F` (racemic) [Example 51, 2-[(7-fluoro-5-phenyl-6,7-dihydro-5H-pyrrolo[1,2-b][1,2,4]triazol-2-yl)methoxy]acetonitrile], 120 nM; that for `F[C@H]1C[C@@H](c2ccccc2)n2nc(-n3cc(C4CC4)cn3)nc21` (single isomer, unassigned) [Example 79], 13 nM.
For `Cc1ccc2c(c1)nnn2-c1nc2n(n1)[C@H](c1ccccc1)C[C@@H]2F` (racemic) [Example 88, 5-methyl-1-[rac-(5S,7S)-7-fluoro-5-phenyl-6,7-dihydro-5H-pyrrolo[1,2-b][1,2,4]triazol-2-yl]benzotriazole], the Ki was 45 nM.
`Cn1ccn(-c2nc3n(n2)[C@H](c2ccccc2)C[C@@H]3F)c1=O` (single isomer, unassigned) [Example 71] showed a Ki of 820 nM.
Consider `N#C[C@H]1C[C@@H]1C(F)(F)c1nc2n(n1)[C@H](c1ccccc1)C[C@@H]2F` (mixture of isomers) [Example 113, rac-(1S,2S)-2-[difluoro-[(5S,7S)-7-fluoro-5-phenyl-6,7-dihydro-5H-pyrrolo[1,2-b][1,2,4]triazol-2-yl]methyl]cyclopropane carbonitrile], for which the Ki turned out to be 4.8 nM.
In turn, `CCOC(=O)[C@@H]1C[C@H]1c1nc2n(n1)[C@H](c1ccccc1)C[C@@H]2F` (mixture of isomers) [Example 21, ethyl rac-(1R,2R)-2-[(5S,7S)-7-fluoro-5-phenyl-6,7-dihydro-5H-pyrrolo[1,2-b][1,2,4]triazol-2-yl]cyclopropanecarboxylate] gave a Ki of 100 nM.
The compound `Cc1ccnn1-c1nc2n(n1)[C@H](c1ccccc1)C[C@@H]2F` (single isomer, unassigned) [Example 63] returned a Ki of 92 nM.
To `CC1([C@@H](O)c2nc3n(n2)[C@H](c2ccccc2)C[C@@H]3F)CC1` (single isomer, unassigned) [Example 105] belongs 350 nM.
To `N#CCCc1nc2n(n1)[C@H](c1ccccc1)C[C@@H]2F` (single isomer, unassigned) [Example 22] belongs 11 nM; to `O[C@@H](c1nc2n(n1)[C@H](c1ccccc1)C[C@@H]2F)C1CC1` (single isomer, unassigned) [Example 35], 83 nM.
Compound `F[C@H](c1nc2n(n1)[C@H](c1ccccc1)C[C@@H]2F)C12CC(C1)C2` (single isomer, unassigned) [Example 46] had a Ki of 840 nM.
The result for `N#CC1(Cc2nc3n(n2)[C@H](c2ccccc2)C[C@@H]3F)CC1` (single isomer, unassigned) [Example 47] reads 95 nM.
As for `F[C@H](c1nc2n(n1)[C@H](c1ccccc1)C[C@@H]2F)C1CC1` (single isomer, unassigned) [Example 109], the Ki amounted to 12 nM.
Compound `F[C@H]1C[C@@H](c2ccccc2)n2nc(-n3ncc4ccccc43)nc21` (racemic) [Example 73, 1-[rac-(5S,7S)-7-fluoro-5-phenyl-6,7-dihydro-5H-pyrrolo[1,2-b][1,2,4]triazol-2-yl]indazole] returned a Ki of 6.2 nM.
The result for `C[C@@H]1C[C@H]1c1nc2n(n1)[C@H](c1ccccc1)C[C@@H]2F` (single isomer, unassigned) [Example 96] reads 63 nM; that for `CCc1cnn(-c2nc3n(n2)[C@H](c2ccccc2)C[C@@H]3F)c1` (single isomer, unassigned) [Example 59], 11 nM.
`F[C@@H]1C[C@H]1C(F)(F)c1nc2n(n1)[C@H](c1ccccc1)C[C@@H]2F` (racemic) [Example 23, (5S,7S)-2-[difluoro-(rac-(1R,2R)-2-fluorocyclopropyl)methyl])-7-fluoro-5-phenyl-6,7-dihydro-5H-pyrrolo[1,2-b][1,2,4]triazole]: the Ki was determined as 4 nM.
Regarding `CCCc1nc2n(n1)[C@H](c1ccccc1F)CC2` (single isomer, unassigned) [Example 26], the Ki worked out at 114 nM.
Compound `CS(=O)(=O)c1cnn(-c2nc3n(n2)[C@H](c2ccccc2)C[C@@H]3F)c1` (single isomer, unassigned) [Example 80] had a Ki of 190 nM.
The result for `F[C@H]1C[C@@H](c2ccccc2)n2nc(-n3cncn3)nc21` (single isomer, unassigned) [Example 68] reads 190 nM.
